The source of these data is ChEMBL document CHEMBL1150212, “Antitumor agents, 129. Tannins and related compounds as selective cytotoxic agents” (1992).

Common to all, as to format: functional
Details in all cases: read-out: ED50 (the source's name)

Assay [1] deals with TE-671. The assay is described as follows: Cytotoxicity against human TE671 cells by tetrazolium salt-based colorimetric assay.
The subject of assay [2] is HCT-8. In words: Cytotoxicity against human HCT8 cells by tetrazolium salt-based colorimetric assay.
For assay [3], the system named is KB. In words: Cytotoxicity against human KB cells by tetrazolium salt-based colorimetric assay.
In assay [4] the test system is A549. The assay is described as follows: Cytotoxicity against human A549 cells by tetrazolium salt-based colorimetric assay.
Assay [5] can be described thus: Cytotoxicity against human […] cells by tetrazolium salt-based colorimetric assay.

For the compound `Oc1cc(O)c2c(c1)O[C@@]1(c3ccc(O)c(O)c3)Oc3cc(O)c4c(c3[C@@H]2[C@H]1O)O[C@H](c1ccc(O)c(O)c1)[C@H](O)C4` [PROANTHOCYANIDIN A2], the EC50 in assay [1] is over 10 µg/mL; in assay [2] it was over 10 µg/mL; in assay [3], over 10 µg/mL; in assay [4], over 10 µg/mL; in assay [5], 5.5 µg/mL.
For `Oc1cc(O)c2c(c1)O[C@H](c1ccc(O)c(O)c1)[C@H](O)[C@H]2c1c(O)cc(O)c2c1O[C@H](c1ccc(O)c(O)c1)[C@H](O)C2` [PROCYANIDIN B2], the EC50 in assay [1], in assay [2], in assay [3], in assay [4] and in assay [5] was over 10 µg/mL throughout.
On to `Oc1cc(O)c2c(c1)O[C@H](c1ccc(O)c(O)c1)[C@H](O)[C@H]2c1c(O)cc(O)c2c1O[C@H](c1ccc(O)c(O)c1)[C@H](O)[C@H]2c1c(O)cc(O)c2c1O[C@H](c1ccc(O)c(O)c1)[C@H](O)C2` [PROCYANIDIN C1], for which the EC50 in assay [1], in assay [2], in assay [3], in assay [4] and in assay [5] was over 10 µg/mL throughout.
Regarding `O=C1O[C@H]([C@@H]2OC(=O)c3cc(O)c(O)c(O)c3-c3c(O)c(O)c4oc(=O)c5c(c(O)c(O)c6oc(=O)c3c4c65)-c3c(cc(O)c(O)c3O)C(=O)OC[C@H]2O)[C@@H]2OC(=O)c3c(c(O)c(O)c(O)c3[C@H]2O)-c2c1cc(O)c(O)c2O` [PUNICACORTEIN C], the EC50 was over 10 µg/mL in assay [1]; over 10 µg/mL in assay [2]; over 10 µg/mL in assay [3]; over 10 µg/mL in assay [4]; 3.86 µg/mL in assay [5].
Regarding `O=C(O[C@@H]1O[C@@H]2COC(=O)c3cc(O)c(O)c(O)c3-c3c(cc(O)c(O)c3O)C(=O)O[C@H]([C@H]1OC(=O)c1cc(O)c(O)c(O)c1)[C@@H]2OC(=O)c1cc(O)c(O)c(O)c1)c1cc(O)c(O)c(O)c1` [PUNICAFOLIN], the EC50 in assay [1], in assay [2], in assay [3], in assay [4] and in assay [5] was over 10 µg/mL each time.
`O=C1O[C@@H]2[C@@H](OC(=O)c3cc(O)c(O)c(O)c3-c3c1cc(O)c(O)c3O)[C@H](O)O[C@@H]1COC(=O)c3cc(O)c(O)c(O)c3-c3c(O)c(O)c4oc(=O)c5c(c(O)c(O)c6oc(=O)c3c4c65)-c3c(cc(O)c(O)c3O)C(=O)O[C@@H]21` [PUNICALAGIN]: the EC50 in assay [1], in assay [2], in assay [3], in assay [4] and in assay [5] was over 10 µg/mL throughout.
Turning to `O=C1OC[C@H]2O[C@@H](O)[C@H](O)[C@@H](O)[C@@H]2OC(=O)c2cc(O)c(O)c(O)c2-c2c(O)c(O)c3oc(=O)c4c(c(O)c(O)c5oc(=O)c2c3c54)-c2c1cc(O)c(O)c2O` [PUNICALIN], the EC50 in assay [1], in assay [2], in assay [3], in assay [4] and in assay [5] was over 10 µg/mL in each case.
Regarding `O=C(O[C@@H]1O[C@@H]2COC(=O)c3cc(O)c(O)c(O)c3-c3c(cc(O)c(O)c3O)C(=O)O[C@H]2[C@H](O)[C@H]1O)c1cc(O)c(O)c(O)c1` [STRICTININ], the EC50 was over 10 µg/mL in assay [1]; over 10 µg/mL in assay [2]; over 10 µg/mL in assay [3]; over 10 µg/mL in assay [4]; 4.86 µg/mL in assay [5].
Take `O=C1O[C@H]2[C@H](OC(=O)c3cc(O)c(O)c(O)c3)[C@@H](OC(=O)c3cc(O)c(O)c4c3[C@@H]3C1=CC(=O)C(O)(O)C3(O)O4)[C@H](OC(=O)c1cc(O)c(O)c(O)c1)O[C@@H]2COC(=O)c1cc(O)c(O)c(O)c1` (stereo not given in full) [TERCHEBIN]: the EC50 in assay [1], in assay [2], in assay [3], in assay [4] and in assay [5] was over 10 µg/mL each time.
Consider `O=C1OCC2OC(=O)c3cc(O)c(O)c(O)c3-c3c(O)c(O)c(O)c4c3C(=O)OC(C2OC(=O)c2cc(O)c(O)c(O)c2-c2c1cc(O)c(O)c2O)C1OC(=O)c2c-4c(O)c(O)c(O)c2C1O` (stereo not given) [VESCALAGIN], for which the EC50 in assay [1] was over 10 µg/mL; in assay [2], over 10 µg/mL; in assay [3], over 10 µg/mL; in assay [4], over 10 µg/mL; in assay [5] it was 0.58 µg/mL.
